According to patent publication US20080255150A1, “Novel Compounds” (ASTRAZENECA AB, priority 2005, published 2008):

biological target: T1, rhCRTh2 (Homo sapiens, UniProt Q9Y5Y4); assay: Ligand binding assay, [3H]PGD2 SPA on HEK cell membranes; settings: [3H]PGD2 displacement; membranes of HEK cells expressing rhCRTh2/Gα16; SPA beads; 2 h at RT; read-out: pIC50 value (converted)
T1 construct: expressed in transfected cells; expression induced with sodium butyrate; membrane preparation
T1 sequence (Q9Y5Y4 1-395): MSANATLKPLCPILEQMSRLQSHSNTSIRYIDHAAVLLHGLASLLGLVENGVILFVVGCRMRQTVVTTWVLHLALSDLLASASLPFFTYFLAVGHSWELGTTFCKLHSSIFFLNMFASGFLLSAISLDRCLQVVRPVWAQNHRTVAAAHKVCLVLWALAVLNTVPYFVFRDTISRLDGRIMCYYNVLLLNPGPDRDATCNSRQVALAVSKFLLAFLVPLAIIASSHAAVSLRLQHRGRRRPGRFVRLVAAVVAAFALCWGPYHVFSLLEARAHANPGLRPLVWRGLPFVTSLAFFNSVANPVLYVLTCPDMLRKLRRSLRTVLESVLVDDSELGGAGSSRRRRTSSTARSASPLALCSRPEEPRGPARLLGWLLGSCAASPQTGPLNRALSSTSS
Procedure: [^3H]PGD2 was purchased from Perkin Elmer Life Sciences with a specific activity of 100-210 Ci/mmol. All other chemicals were of analytical grade.
HEK cells expressing rhCRTh2/Gα16 were routinely maintained in DMEM containing 10% Foetal Bovine Serum (HyClone), 1 mg/ml geneticin, 2 mM L-glutamine and 1% non-essential amino acids. For the preparation of membranes, the adherent transfected HEK cells were grown to confluence in two layer tissue culture factories (Fisher, catalogue number TKT-170-070E). Maximal levels of receptor expression were induced by addition of […] sodium butyrate for the last 18 h of culture. The adherent cells were washed once with phosphate buffered saline (PBS, 50 ml per cell factory) and detached by the addition of 50 ml per cell factory of ice-cold membrane homogenisation buffer [20 mM HEPES (pH 7.4), 0.1 mM dithiothreitol, 1 mM EDTA, 0.1 mM phenyl methyl sulphonyl fluoride and 100 μg/ml bacitracin]. […] The final pellet was re-suspended in 4 ml of membrane homogenisation buffer per cell factory used and the protein content determined. […]
All assays were performed in Corning clear bottomed, white 96-well NBS plates (Fisher). […] (The optimum coating concentrations were determined for each batch of membranes) The beads were pelleted by centrifugation (800×g for 7 minutes at 4° C.), washed once with assay buffer (50 mM HEPES pH 7.4 containing 5 mM magnesium chloride) and finally re-suspended in assay buffer at a bead concentration of 10 mg/ml.
Each assay contained 20 μl of 6.25 nM [^3H]PGD2, 20 μl membrane saturated SPA beads both in assay buffer and 10 μl of compound solution or 13,14-dihydro-15-keto prostaglandin D2 (DK-PGD2, for determination of non-specific binding, Cayman chemical company). […] The assay plate was incubated at RT for 2 h and counted on a Wallac Microbeta liquid scintillation counter (1 minute per well).

SMILES	IC50 [nM]
C[C@H]1CN(Cc2cc(Cl)ccc2CC(=O)O)CCN1S(=O)(=O)c1ccccc1 [Example 9, (4-chloro-2-{[(3S)-3-methyl-4-(phenylsulfonyl)piperazin-1-yl]methyl}phenyl)acetic acid]	14.1
C[C@H]1CN(Cc2cc(Cl)ccc2CC(=O)O)CCN1C(=O)Cc1ccc(F)cc1F [Example 12, [4-chloro-2-({(3S)-4-[(2,4-difluorophenyl)acetyl]-3-methylpiperazin-1-yl}methyl)phenyl]acetic acid]	7.94
C[C@H]1CN(Cc2cc(Cl)ccc2CCC(=O)O)CCN1C(=O)Cc1ccccc1 [Example 4, 3-(4-chloro-2-{[(3S)-3-methyl-4-(phenylacetyl)piperazin-1-yl]methyl}phenyl)propanoic acid]	79.4
